Patent US12239654B2, “Compounds and methods for treating neurological and cardiovascular conditions” (Astrocyte Pharmaceuticals, Inc., priority 2016, dated 2025)
Where two headings read alike, the source gives them in different places. Marks after values point to notes of the source that are not given here.

Assays:
[1] = Plasma binding determination by plasma ultrafiltration, mouse; format: in vitro ADME; settings: mouse plasma, 1 μM
Procedure: (§1) Animals and Tissue Preparation: Plasma from male CD-1 mice was obtained from BioreclamationIVT (Westbury, NY) and stored at −80° C. until use. Male CD-1 mouse brains were obtained from BioreclamationIVT (Westbury, NY).
Plasma ultrafiltrate blank samples were prepared by thawing frozen plasma and then pre-warming plasma in a humidified 5% CO2 chamber at 37° C. for 60 minutes. Aliquots of 800 μL were transferred to Centrifree Centrifugal Filters (Ultracel regenerated cellulose (NMWL 30,000 amu) Lot R5JA31736) and centrifuged at 2900 RPM at 37° C. for 10 minutes; plasma water filtrates were collected and used in preparation of standards, blanks and QC standards.
Plasma samples were pre-warmed for 60 minutes in a humidified, 5% CO2 incubator maintained at 37° C. […] Spiked plasma samples were incubated on a rotary mixer in a humidified 5% CO2 chamber at 37° C. for a minimum of 60 minutes. After 60 minutes, three 800 μL aliquots of each sample were added to Centrifree centrifugal filters. The filters were subjected to centrifugation at 2900 rpm for 10 minutes at 37° C. Three 100 μL aliquots of residual plasma were collected along with ultrafiltrate for bioanalysis.
(§2) Plasma and brain concentrations of MRS4322 and MRS5698 in spiked plasma, brain homogenates and associated ultrafiltrates were determined by LC-MS/MS utilizing tolbutamide as an internal standard. […] The following tables outline the LC and MS/MS conditions employed (Tables 7 and 8).
(§3) For each tissue matrix, standard curves were created and LLOQ/ULOQ concentrations determined. The calibration range for the MRS4322 and MRS5698 plasma concentration standard curves was 400-1200 nM. The calibration range for MRS4322 and MRS5698 plasma ultrafiltrate standard curves was 100-1200 nM. The calibration range for MRS4322 brain homogenate and brain homogenate ultrafiltrate standard curves were 400-1200 nM and 100-1200 nM, respectively. The calibration range for MRS5698 brain homogenate and brain homogenate ultrafiltrate standard curves were 400-1200 nM and 1-500 nM, respectively.

[2] = Brain binding determination by brain homogenate ultrafiltration, mouse; format: in vitro ADME; settings: for fraction unbound at 60 min, 1 μM: male, CD-1, mouse, brain homogenate, pH 7.4, mouse brain homogenate
Procedure: as §1
Brains were weighed and homogenized with 1:9 phosphate-buffered saline, pH 7.4 using an Omni tissue homogenizer. Brains from four mice were homogenized, pooled and mixed to form one sample.
Pooled homogenized brains were pre-warmed for 60 minutes in a humidified, 5% CO2 incubator maintained at 37° C. […] Spiked pooled brain homogenates were placed on a Nutator mixer in a humidified, 5% CO2 incubator at 37° C. for 60 minutes. After 60 minutes, three 800 μL aliquots of each sample were added to Centrifree centrifugal filters. The filters were subjected to centrifugation at 2900 rpm for 10 minutes at 37° C. Aliquots of residual brain homogenate and ultrafiltrate were collected for bioanalysis.
as §2, §3

mice subjected to stroke = test: Photothrombosis-induced stroke in mice, TTC-stained brain infarction size; format: in vivo, C57Bl/6 mice; settings: 24 hours
Procedure: Photothrombosis-induced Stroke: Photothrombosis was performed as described in Zheng et al 2010 (PloS One 5 (12): e14401). In brief, Rose Bengal is a fluorescent dye that when injected into the vasculature and excited, generates singlet oxygen that damages the endothelial wall and induces a local thrombosis (clot). Using this technique, mice were given a 0.1 mL tail-vein injection of sterilized Rose Bengal (RB, Sigma, U.S.A.) in artificial cerebral spinal fluid (aCSF). The RB concentration was 20 mg/mL. A cortical region was centered in the imaging field and illuminated with a green laser (543 nm, 5 mW) using a 0.8-NA 40× water-immersion objective (Nikon, Tokyo). The clot formation was monitored in real time until the targeted vessel or downstream capillaries were firmly occluded. Stable clots were subsequently identified by a non-fluorescent vessel segmentation ending with highly fluorescent regions. […] Treatments, MRS4322 (0.16 mg/kg; 0.5 μmol/kg) or MRS2365 (0.24 mg/kg; 0.5 μmol/kg) were introduced via intraperitoneal injections (i.p.). For experiments with A3 receptor antagonist MRS1523, mice were administered intraperitoneal injections (2 mg/kg) at the 0 and 2 hour timepoints to ensure receptor antagonism throughout the course of the study.
Animals and Photothrombosis-induced Stroke: Stroke was performed as described in Zheng et al 2010 (PloS One 5 (12): e14401). Female C57Bl/6 mice (4-6 months) were used in this study. From the methods of this manuscript: Mice were anesthetized at 3% isoflurane with 100% oxygen and subsequently maintained at 1% isoflurane through a nosecone. Depth of anesthesia was monitored and regulated according to vital signs, pinch withdrawal and eye blinks. Body temperature was maintained at 37° C. by a feedback-controlled heating pad (Gaymar T/Pump). Vital signs including oxygen saturation, respiratory rate, and heart rate were continuously monitored by using the MouseOx system (STARR Life Sciences). The hair on each mouse's head was trimmed and a small incision was made in the scalp to expose the skull. A custom-made stainless steel plate was glued to the skull with VetBond Tissue Adhesive (3M, St Paul, MN). A cranial thinned-skull imaging window was created over the right primary somatosensory cortex (˜1.5 mm posterior to Bregma and 2 mm lateral from midline) depending on the experiment. In brief, a large region of the skull was first thinned with the electric drill and then further thinned with a surgical blade. The final thickness of the thinned skull was approximately 50 μm. After the cranial imaging window was created, mice were transferred to microscope stage and used for photothrombosis or imaging experiments. For the repeat imaging experiments, the plate was carefully detached from the skull and the scalp was sutured (Ethicon 6-0 sild suture). After each experiment, the mice were either returned to cages until the next timepoint or sacrificed. All procedures were approved by the Institutional Animal Care and Use Committee (IACUC) at University of Texas Health Science Center at San Antonio. Thirty minutes following stroke or sham (uninjured), mice were treated with either vehicle (saline) or drugs (MRS4322, MRS2365, MRS5698 or Cl-IBMECA).
Post photothrombotic infarction evaluation. The size of cerebral infarcts was evaluated using 2,3,5-Triphenyltetrazolium chloride (TTC) staining as described in Zheng et al 2010 (PloS One 5 (12): e14401). In brief, RB-induced lesions in brain slices were stained with TTC. TTC is a colorless dye that stains healthy brain tissue red when reduced by the mitochondrial enzyme succinyl dehydrogenase (Bederson J B et al., 1986). The absence of staining in necrotic tissue is then used to define the area of a brain infarction. Mice were sacrificed by cervical dislocation, their brains removed and then placed in ice cold HBSS for 3 minutes. The brain was subsequently transferred to a brain mold (KOPF), sliced into 1 mm sections and immersed in 2% TTC (5 min) at 37° C. […]

| Compound | concentrations in the plasma ultrafiltrate [1] | fraction unbound at 60 min, 1 μM ([2]; 37° C., ultrafiltration, read-out: % Bound Mean (converted)) | fraction unbound at 60 min, 1 μM ([2]; 37° C., ultrafiltration, read-out: Fraction Unbound Mean) | concentrations in the brain homogenate ultrafiltrate ([2]; mouse brain homogenate, 1 μM) | % Bound Mean ([2]; mouse brain homogenate, 1 μM, 37° C., ultrafiltration) | size of brain infarctions in mice pretreated with A3 receptor antagonist MRS1523 (mice subjected to stroke; MRS1523 2 mg/kg ip at 0 and 2 hour, treatment within 30 minutes of clot formation) | size of the brain infarction (TTC staining) (mice subjected to stroke; photothrombotic stroke mice, 100 ul of 100 uM ip within 30 minutes of clot formation, vs vehicle) |
| --- | --- | --- | --- | --- | --- | --- | --- |
| CNC(=O)[C@@]12C[C@@H]1[C@@H](n1cnc3c(NCc4cccc(Cl)c4)nc(C#Cc4ccc(F)c(F)c4)nc31)[C@H](O)[C@@H]2O [MRS5698] | not detected | 0.0001 | < 0.000122 | not detected | >99.99* % | not reduced | – |
| Nc1nc(Cl)nc2c1ncn2[C@H]1[C@H](O)[C@H](O)[C@]2(CO)C[C@H]12 [MRS1873] | – | – | – | – | – | – | significantly reduced |
